Tests used:
[1] = tested on: hypoxia-induced pulmonary hypertension in rat; experiment: Acute efficacy in hypoxia-induced pulmonary hypertension in rat following intratracheal (IT) administration; format: in vivo; settings: decrease in SBP at dose giving decrease in PAP ≥15 mmHg
Description: Acute Efficacy in Hypoxia-Induced Pulmonary Hypertension in Rat Following Intratracheal (IT) Administration Charles River Sprague-Dawley (CD) male rats weighing approximately 350 g were implanted with HD-S21 dual pressure telemetry transmitters (Data Sciences International (DSI)) into the pulmonary artery and femoral artery. This transmitter enables simultaneous measurement of both pulmonary and systemic hemodynamic parameters in the same animal. After a 7-10 day post-operative recovery period, animals were subjected to a normobaric hypoxic (10% oxygen) environment using a Higher Peak Mountain Air Generator (MAG-10) connected to a modified rodent cage via a fitted inlet port. Oxygen (at 10%), temperature, humidity, and CO2 were controlled within normal range and animals were maintained on a 12 hour light-dark cycle with ad libitum access to food and water. After two weeks exposure to 10% O2 hypoxic environment, systolic pulmonary arterial pressure readings increased from ˜25 mmHg to greater than 50 mmHg. Using a 48 hour baseline average, animals with readings between 50-110 mmHg (standard deviation of less than 10 mmHg) and minimal changes in systolic systemic blood pressure were enrolled for study. Animals were utilized for up to 2 studies per week for 4 weeks with a minimum of 2 days washout between doses of test agent. Compound or vehicle was administered intra-tracheally under light isoflurane anesthesia (5% in oxygen; flow rate 2.0 L/min for 3 minutes). Once anesthetized, rats were placed on an angled intubation stand in supine position and the trachea visualized using a small laryngoscope. Animals then received either 0.5 mL/kg of vehicle or 0.5 mL/kg vehicle containing compound intra-tracheally delivered via microsprayer by use of a Penn-Century Microsprayer® needle 3″ (Model IA-1B-GP) attached to a 1 mL high pressure syringe (Penn Century-Model B—SYR-PL1000) (Penn-Century, Philadelphia, Pa.). The Microsprayer® tip was inserted into the trachea up to the point at which the bend in the needle is close to the tip of the snout, which positions the tip of the Microsprayer® in front of the carina (bifurcation of trachea at the bronchi). After dose delivery the animal is placed on its back in the home cage for recovery. Hemodynamic measurements were continuously recorded and readings consolidated to hourly moving averages. Each animal received a vehicle on Day 1 followed by vehicle or test agent on Day 2. Change from vehicle baseline was calculated by subtracting the hourly Day 1 vehicle response from the hourly Day 2 response and treatment group data was expressed as mean±SEM. Decreases of systolic blood pressure (SBP) and systolic pulmonary arterial pressure (PAP) were measured at a particular IT dose (mpk milligrams per kilogram) for the following Example compounds. Compounds in the Table 13 achieved a minimum decrease in PAP of ≥15 mmHg for the corresponding decrease in SBP listed.

[2] = target: human recombinant sGC enzyme (Homo sapiens (Human), UniProt Q02108+Q02153); experiment: SEC competition binding assay with [3H] Compound B radioligand; settings: displacement of 1.6 nM [3H] Compound B, 24 h at 37° C.
In short: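 Recombinant human sGC incubated with 1.6 nM [3H] Compound B and test compounds for 24 h at 37° C. Buffer: 50 mM triethanolamine pH 7.4, 3 mM MgCl2, 0.025% BSA, 2 mM DTT, 300 μM DETA/NO, 400 μM GTP, 1% DMSO. Bound ligand separated by gel filtration and counted by scintillation; non-specific binding with 1 μM Compound B; Ki from one-site fit.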

[3] = target: sGC α1/β1 heterodimer (Homo sapiens (Human), UniProt Q02108+Q02153); experiment: Cell-based sGC functional assay (CASA assay), cGMP by HTRF; settings: CHO-K1/sGC cells; for Emax: CHO-K1, cGMP production as percentage of maximum of compound A (set to 100%), read-out: % Activation; for EC50: inflection point of cGMP production, 4P fit, read-out: IP
In short: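 CHO-K1 cells stably expressing human sGC α1/β1, with 0.5 mM IBMX, pre-incubated ±1 μM DETA-NO 30 min at 25° C, then compound 1 hr at 37° C (2.5% DMSO). cGMP by HTRF; activation as % of reference activator maximum, 4P fit giving inflection point and maximum […].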

`CC1(c2cccc(O)c2)C(=O)Nc2nc(-c3cn4ccnc4c(Cc4cc(F)ccc4F)n3)nc(N)c21` (stereo not drawn) [Example 11-B, 4-Amino-2-{8-[(2,5-difluorophenyl)methyl]imidazo[1,2-a]pyrazin-6-yl}-5-(3-hydroxyphenyl)-5-methyl-5,7-dihydro-6H-pyrrolo[2,3-d]pyrimidin-6-one] was tested, and the “Category (decrease in SBP)” value ([1]; IT dose 0.01 mpk) was “B (decrease in SBP 5-10 mmHg)”, the Ki [2] was 0.135 nM and the Emax [3] was 137%. It also gave an EC50 [3] of 503 nM.
In the case of `CC1(c2ccc(F)c(O)c2)C(=O)Nc2nc(-c3cn4ccnc4c(Cc4ccccc4F)n3)nc(N)c21` (stereo not drawn) [Example 13-B, 4-Amino-5-(4-fluoro-3-hydroxyphenyl)-2-{8-[(2-fluorophenyl)methyl]imidazo[1,2-a]pyrazin-6-yl}-5-methyl-5,7-dihydro-6H-pyrrolo[2,3-d]pyrimidin-6-one], the “Category (decrease in SBP)” value ([1]; IT dose 0.01 mpk) is reported as “A (decrease in SBP 0-5 mmHg)”, the Ki [2] is reported as 0.154 nM and the Emax [3] is reported as 100%. It also gave an EC50 [3] of 821 nM.
`CC1(c2ccc(Cl)c(O)c2)C(=O)Nc2nc(-c3cn4ccnc4c(CC4CCCCC4)n3)nc(N)c21` (stereo not drawn) [Example 14-A, 4-Amino-5-(4-chloro-3-hydroxyphenyl)-2-(8-(cyclohexylmethyl)imidazo[1,2-a]pyrazin-6-yl)-5-methyl-5,7-dihydro-6H-pyrrolo[2,3-d]pyrimidin-6-one] was tested, and the “Category (decrease in SBP)” value ([1]; IT dose 0.01 mpk) was “A (decrease in SBP 0-5 mmHg)”, the Ki [2] was 0.156 nM and the Emax [3] was 68%. It also gave an EC50 [3] of 144 nM.
In the case of `CC1(c2cc(O)c(C#N)c(F)c2)C(=O)Nc2nc(-c3cn4ccnc4c(CC4CCCCC4)n3)nc(N)c21` (stereo not drawn) [Example 18-B, 4-(4-Amino-2-(8-(cyclohexylmethyl)imidazo[1,2-a]pyrazin-6-yl)-5-methyl-6-oxo-6,7-dihydro-5H-pyrrolo[2,3-d]pyrimidin-5-yl)-2-fluoro-6-hydroxybenzonitrile], the “Category (decrease in SBP)” value ([1]; IT dose 0.03 mpk) is reported as “B (decrease in SBP 5-10 mmHg)”, the Ki [2] is reported as 0.168 nM and the Emax [3] is reported as 88%. It also gave an EC50 [3] of 950 nM.
With `CC1(c2cc(O)c(C#N)c(F)c2)C(=O)Nc2nc(-c3cn4ccnc4c(Cc4ccccc4F)n3)nc(N)c21` (stereo not drawn) [Example 23-B, 4-(4-Amino-2-{8-[(2-fluorophenyl)methyl]imidazo[1,2-a]pyrazin-6-yl}-5-methyl-6-oxo-6,7-dihydro-5H-pyrrolo[2,3-d]pyrimidin-5-yl)-2-fluoro-6-hydroxybenzonitrile] the “Category (decrease in SBP)” value ([1]; IT dose 0.03 mpk) was “A (decrease in SBP 0-5 mmHg)”, the Ki [2] was 0.216 nM and the Emax [3] was 76%. It also gave an EC50 [3] of 3110 nM.
For `CC(C)CCc1nc(-c2nc(N)c3c(n2)NC(=O)C3(C)c2ccc(Cl)c(O)c2)cn2ccnc12` (stereo not drawn) [Example 25-A, 4-Amino-5-(4-chloro-3-hydroxyphenyl)-2-(8-isopentylimidazo[1,2-a]pyrazin-6-yl)-5-methyl-5,7-dihydro-6H-pyrrolo[2,3-d]pyrimidin-6-one], the “Category (decrease in SBP)” value ([1]; IT dose 0.03 mpk) was “B (decrease in SBP 5-10 mmHg)”, the Ki [2] was 0.252 nM and the Emax [3] was 117%. For the same molecule, the EC50 [3] was 223 nM.
With `CC1(c2ccc(O)c(Cl)c2)C(=O)Nc2nc(-c3cn4ccnc4c(Cc4ccccc4F)n3)nc(N)c21` (stereo not drawn) [Example 28-B, 4-Amino-5-(3-chloro-4-hydroxyphenyl)-2-{8-[(2-fluorophenyl)methyl]imidazo[1,2-a]pyrazin-6-yl}-5-methyl-5,7-dihydro-6H-pyrrolo[2,3-d]pyrimidin-6-one] the “Category (decrease in SBP)” value ([1]; IT dose 0.01 mpk) was “B (decrease in SBP 5-10 mmHg)”, the Ki [2] was 0.283 nM and the Emax [3] was 141%. For the same molecule, the EC50 [3] was 433 nM.
For `CC1(c2ccc(O)c(F)c2)C(=O)Nc2nc(-c3cn4ccnc4c(Cc4ccc(F)cc4)n3)nc(N)c21` (stereo not drawn) [Example 29-B, 4-Amino-5-(3-fluoro-4-hydroxyphenyl)-2-{8-[(4-fluorophenyl)methyl]imidazo[1,2-a]pyrazin-6-yl}-5-methyl-5,7-dihydro-6H-pyrrolo[2,3-d]pyrimidin-6-one], the “Category (decrease in SBP)” value ([1]; IT dose 0.03 mpk) was “C (decrease in SBP >10 mmHg)”, the Ki [2] was 0.291 nM and the Emax [3] was 80%. For the same molecule, the EC50 [3] was 67 nM.
In the case of `CC1(c2cc(O)c(C#N)c(F)c2)C(=O)Nc2nc(-c3cn4ccnc4c(Cc4cc(F)cc(F)c4)n3)nc(N)c21` (stereo not drawn) [Example 38-B, 4-(4-Amino-2-{8-[(3,5-difluorophenyl)methyl]imidazo[1,2-a]pyrazin-6-yl}-5-methyl-6-oxo-6,7-dihydro-5H-pyrrolo[2,3-d]pyrimidin-5-yl)-2-fluoro-6-hydroxybenzonitrile], the “Category (decrease in SBP)” value ([1]; IT dose 0.03 mpk) is reported as “A (decrease in SBP 0-5 mmHg)”, the Ki [2] is reported as 0.41 nM and the Emax [3] is reported as 92%. It also gave an EC50 [3] of 720 nM.
With `CC1(c2cc(O)c(Cl)cn2)C(=O)Nc2nc(-c3cn4ccnc4c(Cc4cccc(F)c4)n3)nc(N)c21` (stereo not drawn) [Example 51-B, 4-Amino-5-(5-chloro-4-hydroxypyridin-2-yl)-2-{8-[(3-fluorophenyl)methyl]imidazo[1,2-a]pyrazin-6-yl}-5-methyl-5,7-dihydro-6H-pyrrolo[2,3-d]pyrimidin-6-one] the “Category (decrease in SBP)” value ([1]; IT dose 0.03 mpk) was “A (decrease in SBP 0-5 mmHg)”, the Ki [2] was 0.874 nM and the Emax [3] was 88%. For the same molecule, the EC50 [3] was 1020 nM.
For `CC1(c2cccc(O)c2)C(=O)Nc2nc(-c3cn4ncnc4c(CCC(F)(F)C(F)(F)F)n3)nc(N)c21` (stereo not drawn) [Example 78-B, 4-Amino-5-(3-hydroxyphenyl)-5-methyl-2-(8-(3,3,4,4,4-pentafluorobutyl)-[1,2,4]triazolo[1,5-a]pyrazin-6-yl)-5,7-dihydro-6H-pyrrolo[2,3-d]pyrimidin-6-one], the “Category (decrease in SBP)” value ([1]; IT dose 0.3 mpk) was “C (decrease in SBP >10 mmHg)”, the Ki [2] was 8.88 nM and the Emax [3] was 93%. It also gave an EC50 [3] of 202 nM.
`CC1(c2ccc(Cl)c(O)c2)C(=O)Nc2nc(-c3cn4ncnc4c(CCC(F)(F)C(F)(F)F)n3)nc(N)c21` (stereo not drawn) [Example 88-A, 4-Amino-5-(4-chloro-3-hydroxyphenyl)-5-methyl-2-(8-(3,3,4,4,4-pentafluorobutyl)-[1,2,4]triazolo[1,5-a]pyrazin-6-yl)-5,7-dihydro-6H-pyrrolo[2,3-d]pyrimidin-6-one] was tested, and the “Category (decrease in SBP)” value ([1]; IT dose 0.03 mpk) was “A (decrease in SBP 0-5 mmHg)”, the Ki [2] was 2.5 nM and the Emax [3] was 95%. For the same molecule, the EC50 [3] was 279 nM.
In the case of `CC1(c2cc(O)c(Cl)cn2)C(=O)Nc2nc(-c3cn4ccnc4c(CC4CCCCC4)n3)nc(N)c21` (stereo not drawn) [Example 93-B, 4-Amino-5-(5-chloro-4-hydroxypyridin-2-yl)-2-(8-(cyclohexylmethyl)imidazo[1,2-a]pyrazin-6-yl)-5-methyl-5,7-dihydro-6H-pyrrolo[2,3-d]pyrimidin-6-one], the “Category (decrease in SBP)” value ([1]; IT dose 0.03 mpk) is reported as “A (decrease in SBP 0-5 mmHg)”, the Ki [2] is reported as 0.374 nM and the Emax [3] is reported as 98%. The EC50 [3] was 683 nM.
For `CC1(c2cc(O)c(Cl)cn2)C(=O)Nc2nc(-c3cn4ccnc4c(Cc4cc(F)ccc4F)n3)nc(N)c21` (stereo not drawn) [Example 94-B, 4-Amino-5-(5-chloro-4-hydroxypyridin-2-yl)-2-{8-[(2,5-difluorophenyl)methyl]imidazo[1,2-a]pyrazin-6-yl}-5-methyl-5,7-dihydro-6H-pyrrolo[2,3-d]pyrimidin-6-one], the “Category (decrease in SBP)” value ([1]; IT dose 0.03 mpk) was “B (decrease in SBP 5-10 mmHg)”, the Ki [2] was 0.149 nM and the Emax [3] was 125%. The EC50 [3] was 1260 nM.
In the case of `CC1(c2cc(O)c(C(F)(F)F)c(F)c2)C(=O)Nc2nc(-c3cn4ccnc4c(CC4CCCCC4)n3)nc(N)c21` (stereo not drawn) [Example 97-B, 4-Amino-2-(8-(cyclohexylmethyl)imidazo[1,2-a]pyrazin-6-yl)-5-(3-fluoro-5-hydroxy-4-(trifluoromethyl)phenyl)-5-methyl-5,7-dihydro-6H-pyrrolo[2,3-d]pyrimidin-6-one], the “Category (decrease in SBP)” value ([1]; IT dose 0.03 mpk) is reported as “A (decrease in SBP 0-5 mmHg)”, the Ki [2] is reported as 0.587 nM and the Emax [3] is reported as 138%. The EC50 [3] was 1080 nM.

— US10780092B2, “Fused pyrazine derivatives useful as soluble guanylate cyclase stimulators” (Merck Sharp & Dohme Corp., priority 2016, dated 2020)
